Assay results published in patent publication US8470780B2, “Methods and compositions related to targeting wounds, regenerating tissue, and tumors” (Sanford-Burnham Medical Research Institute, priority 2006, dated 2013).
Bridges are numbered along the chain shown (N, C = ends). Where no end group is shown, it is not given here.

What was measured:
CHO-K cells [1] = test: Internalization of fluorescein-labeled peptides by CHO-K cells; type: cell-based, Chinese hamster; details: for fluorescence and localization in CHO-K cells by confocal microscopy: FITC-conjugated peptides 10 μM, 4 hours; for accumulation in CHO-K cells: comparison of CHO-K and pgsA-745 cells
Description: (§1) To study peptide internalization, CHO-K cells or HUVEC seeded on plastic coverslips were incubated with 10 μM fluorescein-conjugated peptides for 30 min to 72 hours, washed 3 times with PBS, and fixed with 4% paraformaldehyde for 20 min at room temperature. After several washes with PBS, the nuclei were visualized by staining with DAPI, and the slides were mounted with ProLong Gold antifade reagent (Invitrogen, Carlsbad, Calif.). The images were acquired using Olympus IX81 inverted and Olympus Fluoview FV1000 confocal microscopes. Z-stack images were taken by confocal microscope every 1 μm through the cells.

[2] = system: MDA-MB-235 tumor xenografts; test: Homing of fluorescein-conjugated peptides to tumor xenografts; type: in vivo, mice; details: intravenous, tumor collected 4 hours later; for homing to tumors and extravasation: fluorescence
Description: Fluorescein-conjugated peptides CAR, control peptide CAR2, CRK and control peptide KAREC were intravenously injected into mice with MDA-MB-235 tumor xenografts. Tumor tissue was collected 4 hours later and examined for the presence of the peptides. Blood vessels were stained with CD-31 antibody and the nuclei were stained with DAPI.
Fluorescein-conjugated peptides CAR, control peptide CAR2, CRK and control peptide KAREC were intravenously injected into mice with MDA-MB-235 tumor xenografts. Tumor tissue was collected 4 hours later and examined for the presence of the peptides. Adjacent tissue section were stained for blood vessels (CD-31), while the FITC-labeled peptide was first detected with rabbit anti-FITC followed by biotin-conjugated anti-rabbit IgG to confirm the source of fluorescent signal to be from the FITC-labeled peptide. The sections were then stained with hematoxylin-eosin.

[3] = system: human umbilical vein endothelial cells (HUVECs); test: Internalization of peptides by HUVECs; type: cell-based; details: 10 μM, 24 h
Description: as §1

tendon and skin wounds = test: Tissue distribution of fluorescein-labeled peptides after intravenous injection; type: in vivo, mice and rats; details: FITC conjugates; for fluorescent signal in the wounds: 4 and 8 hours after injection
Text: Two types of injuries were used with patellar tendons: For phage screening in rats, patellar tendons were exposed through small skin incisions placed on the lateral side of the joint so that the skin wound and tendon wound were not in direct contact with each other. Six longitudinal, full-length incisions were made into the tendon. Full-thickness incision wounds, 1.5 cm in length, were made in skin on the back of the animal. The skin wounds were left uncovered without a dressing. For quantification of phage homing and peptide injections, two size 11 surgical scalpels were placed side-by-side and the central third of the patellar tendon was removed analogous to the graft used in anterior cruciate ligament reconstruction. Achilles tendons were wounded by making four longitudinal, full-length incisions into the tendon Skin wounds were 8 mm circular, full-thickness excision wounds, made to the skin with a biopsy punch. None of the procedures prevented the animals from bearing weight and moving immediately after the operation and without a noticeable […].
Peptides were synthesized with an automated peptide synthesizer by using standard solid-phase fluorenylmethoxycarbonyl chemistry. During synthesis, the peptides were labeled with fluorescein with an amino-hexanoic acid spacer. Each individual fluorescein-conjugated peptide was injected intravenously into the tail vein of rats or mice with wounds. The peptides were allowed to circulate for different periods of time, followed by heart perfusion. Tissues were embedded into OCT (Tissue-Tek) and processed for microscopy.
Frozen tissue sections were fixed in acetone for 10 min and incubated with 0.5% blocking reagent for 1 hour (NEN Life Sciences, Boston, Mass.). Tissue sections were incubated with the primary antibody overnight at 4° C. The following monoclonal (mAbs) and polyclonal antibodies (pAbs) were used: rabbit anti-T7-phage affinity-purified pAb (1:100), rat anti-mouse CD31 mAb (1:200; BD Pharmingen) and rabbit anti-FITC pAb (1:200, Invitrogen, Carlsbad, Calif.). The primary antibodies were detected with labeled secondary antibodies, and each staining experiment included sections stained with species-matched immunoglobulins as negative controls. The sections were washed several times with PBS, mounted in Vectashield Mounting Medium with DAPI (Vector Laboratories) and visualized under an inverted fluorescent or light microscope.

pgsA-745 cells [4] = test: Internalization of peptides by pgsA-745 cells; type: cell-based, Chinese hamster; details: comparison of CHO-K and pgsA-745 cells
CHO-K cells [5] = test: FACS analysis of peptide binding to CHO-K cells; type: cell-based, Chinese hamster; details: for peptide binding to CHO-K cells: 5 μM peptide
Description: (§2) Peptide binding to cells was studied essentially as described above for phage. Peptides were tested at 5 μM concentration, with or without 5×10^9 phage. After incubation on ice for 30 min, the cells were washed and resuspended with PBS containing 2 μg/ml of propidium iodide (PI, Invitrogen, Carlsbad, Calif.) and analyzed using a FACScan flow cytometer (BD, San Jose, Calif.).

pgsA-745 cells [6] = test: FACS analysis of peptide binding to pgsA-745 cells; type: cell-based, Chinese hamster; details: 5 μM peptide
Description: as §2

mitochondrial membranes = details: concentration of 10 μM; cited from earlier work

Substance	fluorescence and localization in CHO-K cells by confocal microscopy (CHO-K cells [1])	binding and internalization by CHO-K cells (CHO-K cells [1]; fluorescein-labeled peptide)	homing detected with anti-FITC antibody [2]	homing to tumors and extravasation [2]	binding and internalization by HUVECs [3]	fluorescent signal in non-tumor tissues (liver, kidney, lung and spleen) (tendon and skin wounds)	fluorescent signal in the wounds (tendon and skin wounds)	accumulation in CHO-K cells (CHO-K cells [1])	accumulation in pgsA-745 cells (pgsA-745 cells [4])	peptide binding to CHO-K cells (CHO-K cells [5])	also measured
CRKDKC (not fully specified (N-terminus); cysteine pairing not given here; also: FITC conjugate, site not given here) [tested as fluorescein (FITC) conjugate]	no detectable fluorescence	bound to the cells, but was not detectably internalized	home to hypervascular regions surrounding the tumors and to tumor tissue	home to tumors and extravasate to tumor tissue	binds to the cells, but does not internalize	did not differ from that of the fluorescein-labeled CAR2 or KAREC peptides	strong fluorescent signal in the wounds	–	–	–	–
CARSKNKDC (disulfide 1-9 (inferred); not fully specified (N-terminus); also: FITC conjugate, site not given here) [tested as fluorescein (FITC) conjugate]	strong green fluorescence that mostly overlaps with nuclear DAPI staining	–	home to hypervascular regions surrounding the tumors and to tumor tissue	home to tumors and extravasate to tumor tissue	binds to cells and appears to enter the cells co-localizing with the nuclei	did not differ from that of the fluorescein-labeled CAR2 or KAREC peptides	strong fluorescent signal in the wounds	only binds to and is internalized by the CHO-K cells	only binds to and is internalized by the CHO-K cells	strong binding	time to accumulation inside the cells, overlapping with the nucleus (CHO-K cells [1]; fluorescein-labeled peptide): ≤ 30 min; inhibition of labeled CAR peptide binding to CHO-K cells by competitor (CHO-K cells [5]; excess unlabeled peptide or phage): inhibited the binding in a dose-dependent manner
CGKRK [reference compound]	overlap with the nuclei and the cytosol	–	–	–	–	–	–	accumulated in the cytosol and nuclei	accumulated in the cytosol and nuclei	–	effect of unlabeled competitor on uptake of fluorescein-labeled CAR peptide by CHO-K cells (CHO-K cells [1]; 10-molar excess of unlabeled peptide): did not detectably affect the uptake
CARSTKATC [CAR2]	no detectable fluorescence	no binding or internalization	–	–	–	–	no accumulated fluorescence	–	–	bound only weakly	–
KAREC [unrelated 5 amino-acid control peptide, reference compound]	no detectable fluorescence	–	–	–	–	–	no detectable signal in the wounds	–	–	no binding	peptide binding to pgsA-745 cells (pgsA-745 cells [6]): no binding
D(KLAKLAK)2 (KLAKLAKKLAKLAKKLAKKLAKAAKKAA) [antimicrobial peptide which promotes disruption of mitochondrial membranes]	–	–	–	–	–	–	–	–	–	–	mitochondrial swelling (mitochondrial membranes): marked mitochondrial swelling
